Source: patent US20070111258A1, “Compositions and methods for modulating the acute phase response” (priority 2005, published 2007)

Columns and labels:
CREBH [1] = assay: Cleavage of flag-tagged CREBH in transfected wild-type CHO cells (nuclear fraction Western blot); type: cell-based, Chinese hamster; details: Tm 5 μg/ml 10 hours
Method: FIG. 5 depicts the cleavage of CREBH by proteases S1P and S2P upon ER stress. (A) CREBH is cleaved by S1P-KDEL, but not S1P-KDAS. COS7 cells were co-transfected with a construct expressing flag-tagged full-length CREBH and a construct expressing S1P-KDAS or S1P-KDEL. CREBH construct DNA (1 μg) was mixed with S1P-KDEL or S1P-KDAS construct DNA (1 or 2 μg as indicated) for transfection of cells in one well of a 6-well plate. COS7 cells expressing full-length CREBH were also cultured in the absence or presence of 0.5 μM BFA for 8 hours. COS7 cells expressing CREBH-ΔC, the cytosolic/nuclear form of CREBH, were included as a positive control. Expression and cleavage of CREBH were detected by Western blot analysis using an anti-flag antibody. (B) Cleavage of CREBH in wild-type (K1), S2P-deficient (M19), and […] CHO cells. […]
For analysis of expression and cleavage of CREBH protein, total cell lysates were prepared from H2.35 cells or COS7 cells using Nonidet P-40 lysis buffer (1% NP-40, 50 mM Tris-HCl at pH 7.5, 150 mM NaCl, 0.05% SDS) supplemented with protease inhibitors (Complete Mini from Roche Applied Science), 0.1 mM sodium vanadate, and 1 mM sodium fluoride. […] The total cell lysate, membrane and nuclear fractions were subjected to SDS-PAGE and then analyzed by Western blot using anti-flag monoclonal antibody or other antibodies. […]

CREBH [2] = assay: Confocal immunofluorescence of CREBH translocation in COS7 cells; type: cell-based; details: Tm 5 μg/ml 4 hours
Method: FIG. 3 depicts the effects of ER stress on CREBH: proteolytic cleavage of CREBH to release its N-terminal fragment that translocates into the nucleus. (A) Illustration of transmembrane domains and lumenal domains of SREBP, ATF6, Luman and CREBH in human (hs), mouse (mm). The conserved residues for S1P and S2P recognition are highlighted. (B) Cleavage of CREBH in H2.35 cells under different stimuli. H2.35 cells stably expressing flag-tagged human CREBH were treated with 0.5 μg/ml BFA, 20 ng/ml TNFα, 40 ng/ml IL6, 5 mM DTT, 0.5 μM Tg or 5 μg/ml Tm for 8 hours. Untransfected H2.35 cells (lane 1) and the H2.35 cells that stably express human CREBH (lane 2) were cultured under normal conditions as control. Total cell lysates were collected for Western blot analysis by using an anti-flag monoclonal antibody (upper panel). Levels of α-actin were determined for control of protein loading (lower panel). (C) Cleavage of CREBH in H2.35 cells under Tm treatment for various time periods. The H2.35 cells stably expressing flag-tagged CREBH were cultured in the absence or presence of Tm (5 μg/ml) for 4, 8 or 12 hours. […]
Immunofluorescence staining was performed as previously described (Paterson et al., 1995). […] The fluorescence images were examined by a confocal laser scanning fluorescence microscopy using an LSM510 (Carl Zeiss, Thornwood, N.Y.).

CREBH [3] = assay: Endogenous CREBH cleavage in mouse liver (Western blot); type: in vivo; details: wild-type mice; 24 hours after i.p. injection
Method: (F-G) Expression of endogenous CREBH protein in the livers of wild-type (F) and CREBH knockdown (G) mice challenged with IL6 plus IL1β, LPS or Tm. Wild-type or CREBH knockdown mice of 3-month old were intraperitoneally injected with IL6 (25 ng/gram body weight) plus IL1β (25 ng/gram body weight), LPS (3 μg/gram body weight) or Tm (2 μg/gram body weight). Mice were injected with the same volume of NaCL solution as controls. Liver protein extracts were prepared at 24 hours after injection. Western blot analysis was performed by using a polyclonal anti-mouse CREBH antibody. The blots were reprobed with anti-α-actin antibody for loading controls.

## tunicamycin [Tm]
CREBH [1]
  increase of the nuclear form of CREBH: approximately 6 fold
CREBH [2]
  nuclear accumulation of immunoreactive CREBH protein: a significant portion of the immunoreactive CREBH protein accumulated in the nucleus
CREBH [3]
  cleaved form of CREBH in the livers: cleaved form of CREBH was increased
